Data from patent US11571480B2, “Multi-ligand drug conjugates and uses thereof” (priority 2015, dated 2023).

Assays:
[1] = test system: human nasopharyngeal cancer cell line KB; test: Cytotoxicity test of conjugate LDC13B; type: cell-based
Method: (§1) Culture medium: RPMI 1640 Medium, no folic acid
1) human nasopharyngeal cancer cell line KB, human colon carcinoma HCT-116, human prostatic cancer cell PC-3, human gastric cancer cell line GTL-16, human endometrial cancer cell HEC-1A, and human gastric cancer cell N87 were incubated at 37° C., 5% CO2 in RPMI 1640 medium containing 10% fetal bovine serum, the cells were passaged every 2-3 days.
2) human nasopharyngeal cancer cell line KB, human colon carcinoma HCT-116, human prostatic cancer cell PC-3, human gastric cancer cell line GTL-16, human endometrial cancer cell HEC-1A, and human gastric cancer cell N87 were plated at 1×10^3 cells per well (96-well plate) and incubated for 8-12 h at 37° C., 5% CO2.
(§2) 3) Stock solutions of LDC conjugates or control were prepared in PBS solution. 100 μL/well of serially diluted LDC conjugates or control was added to the cells in the plate and incubated for 15-30 min at 37° C., 5% CO2. The culture medium in the wells was then removed by aspiration and the cells were incubated in fresh culture medium without conjugates (150 μL/well) for 2-3 days at 37° C., 5% CO2.
(§3) 4) CellTiter 96® Aqueous One Solution Cell Proliferation Assay (Promega) was added to each well to measure the amount of […] cells, and the plate was incubated in an incubator for 1 h at 37° C., 5% CO2.
(§4) 5) the plate was read at 490 nm on a microplate reader, and the cell survivals were compared for cells with or without the treatment of LDC conjugates. The LDC drug concentrations that are required for 50% cell death (IC50 values) were determined.

Transplanted H460 tumor = test: Inhibitory assay of conjugate LDC13B against xenograf tumors; type: in vivo, nude mice; details: for Body weight of mice / Tumor size: H460 tumor
Method: (§5) Animal: nude mice, aged 6-8 weeks, female
1) human large cell lung cancer cell H460 were incubated at 37° C., 5% CO2 in IMDM medium containing 10% fetal bovine serum, the cells were passaged every 2-3 days.
2) generation of tumors: 7×10^6 tumor cells were injected subcutaneously into the back of nude mice, and the mice were grouped for treatment after the tumor sizes were as large as about 200 mm^3.
3) treatment: 3 mice/group, treated with LDC13B as well as controls MMAE and PBS with doses of 2.5 and 5 mg/kg every 3 days, four injections.
(§6) 4) the physical performance, body weights and tumor sizes of the animals were monitored. The number of animal death was recorded during the experiment.

melanoma cell line A375 = test: Cytotoxicity test of conjugate LDC1013; type: cell-based
Method: as §1
1) human nasopharyngeal cancer cell line KB, melanoma cell line A375, and human lung cancer cell H460 were incubated at 37° C., 5% CO2 in RPMI 1640 medium containing 10% fetal bovine serum, the cells were passaged every 2-3 days.
2) human nasopharyngeal cancer cell line KB, melanoma cell line A375, and human lung cancer cell H460 were plated at 1×10^3 cells per well (96-well plate) and incubated for 8-12 h at 37° C., 5% CO2.
as §2, §3, §4

[2] = test system: Transplanted HCC1954 tumor; test: Inhibitory assay of conjugate LDC1013 against xenograf tumors; type: in vivo, nude mice; details: for Body weight of mice / Tumor size: HCC1954 tumor
Method: as §5
1) Human breast cancer cells HCC1954 were incubated at 37° C., 5% CO2 in IMDM medium containing 10% fetal bovine serum, the cells were passaged every 2-3 days.
2) generation of tumors: 7×10^6 tumor cells were injected subcutaneously into the back of nude mice, and the mice were grouped for treatment after the tumor sizes were as large as about 180-320 mm^3. […]
as §6

[3] = 2.5 mg/kg, 3 days after Injection 1
[4] = 2.5 mg/kg, 3 days after Injection 2
[5] = 2.5 mg/kg, 3 days after Injection 3
[6] = 2.5 mg/kg, 3 days after Injection 4
[7] = 5 mg/kg, 3 days after Injection 1
[8] = 5 mg/kg, 3 days after Injection 2
[9] = 5 mg/kg, 3 days after Injection 3
[10] = 5 mg/kg, 3 days after Injection 4
[11] = 2.5 mg/kg, 4 days after Injection 5
[12] = 2.5 mg/kg, 5 days after Injection 6
[13] = 2.5 mg/kg, 6 days after Injection 7
[14] = 5 mg/kg, 4 days after Injection 5
[15] = 5 mg/kg, 5 days after Injection 6

Q: What does the source list for `CC[C@H](C)[C@@H]([C@@H](CC(=O)N1CCC[C@H]1[C@H](OC)[C@@H](C)C(=O)N[C@H](C)[C@@H](O)c1ccccc1)OC)N(C)C(=O)[C@@H](NC(=O)[C@H](C(C)C)N(C)C(=O)OCc1ccc(NC(=O)[C@H](CCCNC(N)=O)NC(=O)[C@@H](NC(=O)CCCCCN2C(=O)CC(SC[C@H](NC(=O)CC[C@H](NC(=O)c3ccc(NCc4cnc5[nH]c(N)nc(=O)c5n4)cc3)C(=O)O)C(=O)NCCCC[C@@H](NC(=O)[C@H](Cc3ccc(O)cc3)NC(=O)[C@H](CO)NC(=O)[C@H](Cc3c[nH]c4ccccc34)NC(=O)[C@H](Cc3c[nH]cn3)NC(=O)[C@@H]3CCC(=O)N3)C(=O)N[C@@H](CC(C)C)C(=O)N[C@@H](CCCNC(=N)N)C(=O)N3CCC[C@H]3C(=O)NCC(N)=O)C2=O)C(C)C)cc1)C(C)C` (some centres unmarked) [LDC13B]?
A: more potent than either of the single-ligand drug conjugates LDC1 and LDC13A [1]: 2-10 fold; tumor response (in words) (Transplanted H460 tumor; H460, 2.5 mg/kg dose): shrank rapidly; tumor response (in words) (Transplanted H460 tumor; H460, after four injections at 5 mg/kg): completely disappeared; Body weight of mice (Transplanted H460 tumor; [3]): 22.73 g; Tumor size (Transplanted H460 tumor; [3]): 384 mm^3; Body weight of mice (Transplanted H460 tumor; [4]): 22.65 g; Tumor size (Transplanted H460 tumor; [4]): 384 mm^3; Body weight of mice (Transplanted H460 tumor; [5]): 22.47 g; Tumor size (Transplanted H460 tumor; [5]): 144 mm^3; Body weight of mice (Transplanted H460 tumor; [6]): 21.76 g; Tumor size (Transplanted H460 tumor; [6]): 144 mm^3; Body weight of mice (Transplanted H460 tumor; 2.5 mg/kg, Before Injection): 22.7 g; Tumor size (Transplanted H460 tumor; 2.5 mg/kg, Before Injection): 294 mm^3; Body weight of mice (Transplanted H460 tumor; [7]): 18.36 g; Tumor size (Transplanted H460 tumor; [7]): 144 mm^3; Body weight of mice (Transplanted H460 tumor; [8]): 19.65 g; Tumor size (Transplanted H460 tumor; [8]): 40 mm^3; Body weight of mice (Transplanted H460 tumor; [9]): 18.21 g; Tumor size (Transplanted H460 tumor; [9]): 18 mm^3; Body weight of mice (Transplanted H460 tumor; [10]): 18.22 g; Tumor size (Transplanted H460 tumor; [10]): 13.5 mm^3; Body weight of mice (Transplanted H460 tumor; 5 mg/kg, Before Injection): 20.95 g; Tumor size (Transplanted H460 tumor; 5 mg/kg, Before Injection): 196 mm^3

Q: With `CC[C@H](C)[C@@H]([C@@H](CC(=O)N1CCC[C@H]1[C@H](OC)[C@@H](C)C(=O)N[C@H](C)[C@@H](O)c1ccccc1)OC)N(C)C(=O)[C@@H](NC(=O)[C@H](C(C)C)N(C)C(=O)OCc1ccc(NC(=O)[C@H](CCCNC(N)=O)NC(=O)[C@@H](NC(=O)CCCCCN2C(=O)CC(SC[C@H](NC(=O)[C@H](CCCNC(=N)N)NC(=O)[C@H](CCCNC(=N)N)NC(=O)[C@H](CCCNC(=N)N)NC(=O)[C@H](CCCNC(=N)N)NC(=O)[C@H](CCCNC(=N)N)NC(=O)[C@H](CCCNC(=N)N)NC(=O)[C@H](CCCNC(=N)N)NC(=O)[C@H](CCCNC(=N)N)NC(=O)[C@@H](N)CCCNC(=N)N)C(=O)NCCCC[C@H](NC(=O)[C@H](Cc3ccc(O)cc3)NC(=O)[C@H](CO)NC(=O)[C@H](Cc3c[nH]c4ccccc34)NC(=O)[C@H](Cc3c[nH]cn3)NC(=O)[C@@H]3CCC(=O)N3)C(=O)N[C@@H](CC(C)C)C(=O)N[C@@H](CCCNC(=N)N)C(=O)N3CCC[C@H]3C(=O)NCC(N)=O)C2=O)C(C)C)cc1)C(C)C` (some centres unmarked) [LDC1013] as the molecule, how does the “less toxic for A375 than for H460 and KB, respectively” value (melanoma cell line A375) read?
A: 10-100 fold

Q: What about the “tumor response (in words)” value ([2]; HCC1954, 7 doses at 2.5 mg/kg and 7 doses of 5 mg/kg injected every three days) of the same molecule?
A: completely eliminate

Q: What about the “Body weight of mice” value [2, 3] of the same molecule?
A: 24.46 g

Q: And the Tumor size [2, 3]?
A: 198 mm^3

Q: What about the “Body weight of mice” value [2, 4] of the same molecule?
A: 24.54 g

Q: And the Tumor size [2, 4]?
A: 198 mm^3

Q: What about the “Body weight of mice” value [2, 5] of the same molecule?
A: 23.94 g

Q: What about the Tumor size [2, 5] of the same molecule?
A: 180 mm^3

Q: What about the “Body weight of mice” value [2, 6] of the same molecule?
A: 24.3 g

Q: And the Tumor size [2, 6]?
A: 113 mm^3

Q: What about the “Body weight of mice” value [2, 11] of the same molecule?
A: 24.98 g

Q: What about the Tumor size [2, 11] of the same molecule?
A: 64 mm^3

Q: And the “Body weight of mice” value [2, 12]?
A: 24.73 g

Q: And the Tumor size [2, 12]?
A: 22 mm^3

Q: What about the “Body weight of mice” value [2, 13] of the same molecule?
A: 24.43 g

Q: What about the Tumor size [2, 13] of the same molecule?
A: 0 mm^3

Q: What about the “Body weight of mice” value ([2]; 2.5 mg/kg, Before Injection) of the same molecule?
A: 24.14 g

Q: What about the Tumor size ([2]; 2.5 mg/kg, Before Injection) of the same molecule?
A: 180 mm^3

Q: What about the “Body weight of mice” value [2, 7] of the same molecule?
A: 20.7 g

Q: What about the Tumor size [2, 7] of the same molecule?
A: 405 mm^3

Q: And the “Body weight of mice” value [2, 8]?
A: 20.43 g

Q: And the Tumor size [2, 8]?
A: 405 mm^3

Q: And the “Body weight of mice” value [2, 9]?
A: 21.31 g

Q: What about the Tumor size [2, 9] of the same molecule?
A: 288 mm^3

Q: What about the “Body weight of mice” value [2, 10] of the same molecule?
A: 21.15 g

Q: What about the Tumor size [2, 10] of the same molecule?
A: 88 mm^3

Q: What about the “Body weight of mice” value [2, 14] of the same molecule?
A: 21.21 g

Q: And the Tumor size [2, 14]?
A: 40 mm^3

Q: What about the “Body weight of mice” value [2, 15] of the same molecule?
A: 20.49 g

Q: What about the Tumor size [2, 15] of the same molecule?
A: 0 mm^3

Q: What about the “Body weight of mice” value ([2]; 5 mg/kg, 6 days after Injection 7) of the same molecule?
A: 24.49 g

Q: What about the “Body weight of mice” value ([2]; 5 mg/kg, Before Injection) of the same molecule?
A: 21.92 g

Q: What about the Tumor size ([2]; 5 mg/kg, Before Injection) of the same molecule?
A: 320 mm^3
